Laboratory results published in patent publication US10669284B2, “Fused thiazolopyrimidine derivatives as MNKS inhibitors” (LIFEARC, priority 2015, dated 2020).

Legend:
[1] = tested on: monocytic cell line THP-1; details: cited from earlier work
keratinocytes = details: cited from earlier work
Full-length human MNK2 = biological target: T1, Full-length human MNK2 (Homo sapiens, UniProt Q9HBH9, T379D); test: MNK2 biochemical IC50 assay (Caliper Mobility Shift Assay); details: read-out: P(IC50) MNK2 (converted)
T1 construct: GST (N); purchased Carna Biosciences 02-146; host or cells: baculovirus expression system

[2] = tested on: phosphorylation of eIF4E at ser209 in MV4.11 cell line; test: MNK cellular activity phospho-eIF4E detection assay (Alphascreen Surefire); type: cell-based; details: Homo sapiens; MV4.11 cell line, phospho-eIF4E (ser209) Alphascreen Surefire; read-out: P(IC50) elF4E (converted)
How it was run: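 AlphaScreen SureFire sandwich-immunoassay readout of phospho-eIF4E Ser209 in lysed MV4.11 cells; acceptor then donor beads, each 1.5 hr at room temperature. Signal normalised to untreated DMSO-only controls; duplicate curves, values averaged over at least 2 independent experiments.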

Full-length human MNK1 = biological target: T2, Full-length human MNK1 (Homo sapiens, UniProt Q9BUB5, T385D); test: MNK1 biochemical IC50 assay (Caliper Mobility Shift Assay); details: read-out: P(IC50) MNK1 (converted)
T2 construct: GST (N); purchased Carna Biosciences 02-145; host or cells: baculovirus expression system

[3] = tested on: B16 melanoma lung metastases; details: cited from earlier work
HCT116 xenograft = HCT116 xenograft models; cited from earlier work
[4] = tested on: eIF4E phosphorylation in normal mouse tissues and xenografted tumors; details: after oral administration; cited from earlier work

T2 sequence (Q9BUB5 1-424 isoform Q9BUB5-2 T344D): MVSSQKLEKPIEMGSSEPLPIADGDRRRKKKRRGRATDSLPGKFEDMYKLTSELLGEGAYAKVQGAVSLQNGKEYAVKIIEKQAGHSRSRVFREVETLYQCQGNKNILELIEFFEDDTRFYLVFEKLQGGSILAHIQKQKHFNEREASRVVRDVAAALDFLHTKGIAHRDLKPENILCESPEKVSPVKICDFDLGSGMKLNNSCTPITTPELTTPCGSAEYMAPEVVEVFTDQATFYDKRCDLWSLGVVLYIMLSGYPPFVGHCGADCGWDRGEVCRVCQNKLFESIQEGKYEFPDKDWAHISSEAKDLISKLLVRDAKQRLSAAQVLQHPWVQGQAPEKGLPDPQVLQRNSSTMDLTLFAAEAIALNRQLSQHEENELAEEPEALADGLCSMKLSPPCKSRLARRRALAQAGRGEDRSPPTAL
T1 sequence (Q9HBH9 whole entry T379D): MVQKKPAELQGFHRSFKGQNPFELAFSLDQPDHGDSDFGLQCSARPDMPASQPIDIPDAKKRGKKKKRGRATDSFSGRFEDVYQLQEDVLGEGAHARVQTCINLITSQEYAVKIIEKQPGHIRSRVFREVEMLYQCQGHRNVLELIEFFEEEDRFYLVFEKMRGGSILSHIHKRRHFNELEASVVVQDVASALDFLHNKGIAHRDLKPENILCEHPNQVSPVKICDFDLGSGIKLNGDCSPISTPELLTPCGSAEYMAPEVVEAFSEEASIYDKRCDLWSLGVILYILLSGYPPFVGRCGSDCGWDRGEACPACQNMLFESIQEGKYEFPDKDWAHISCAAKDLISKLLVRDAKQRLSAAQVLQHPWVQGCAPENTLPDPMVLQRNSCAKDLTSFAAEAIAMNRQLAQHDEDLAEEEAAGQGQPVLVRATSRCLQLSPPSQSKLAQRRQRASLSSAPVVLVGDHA

Question: For Nc1ncnc2n[nH]c(Nc3ccc(F)cc3)c12 [CGP57380], which “block of release of IL-1β and IL-8 induced by Shiga toxin” value [1] is on record?
Answer: Its value is 73-96%.

Question: And the TNF-production (keratinocytes)?
Answer: The TNF-production was “reduced TNF-production”.

Question: What about the “expression of IL-1β and IL-6” value (keratinocytes) of the same compound?
Answer: The value was “decreased expression”.

Question: Which results are given for O=C(NC1CCNCC1)c1nc2c(N3CCc4ccccc43)ncnc2s1 [Example 98, 7-indolin-1-yl-N-(4-piperidyl)thiazolo[5,4-d]pyrimidine-2-carboxamide]?
Answer: IC50 (Full-length human MNK2): 3.98 nM; IC50 [2]: 3.98 nM; IC50 (Full-length human MNK1): 3.16 nM

Question: Which results are given for CC1Cc2ccccc2N1c1ncnc2sc(C(=O)NC3CCOCC3)nc12 (stereo not drawn) [Example 122, 7-(2-Methylindolin-1-yl)-N-tetrahydropyran-4-yl-thiazolo[5,4-d]pyrimidine-2-carboxamide]?
Answer: IC50 (Full-length human MNK2): 31.6 nM; IC50 [2]: 50.1 nM; IC50 (Full-length human MNK1): 39.8 nM

Question: What does the source list for CC(C)Oc1cc(F)ccc1Nc1ncnc2sc(C(=O)N3CCC(CN(C)C)CC3)nc12 [Example 35, {4-[(dimethylamino)methyl]piperidin-1-yl}(7-{[4-fluoro-2-(propan-2-yloxy)phenyl]amino}[1,3]thiazolo[5,4-d]pyrimidin-2-yl)methanone]?
Answer: IC50 (Full-length human MNK2): 200 nM; IC50 [2]: 316 nM; IC50 (Full-length human MNK1): 158 nM

Question: Which IC50 (Full-length human MNK2) does the source give for CNCC1CN(c2ncnc3sc(C(=O)NC4CCOCC4)nc23)c2ccccc21 (stereo not drawn) [Example 120, 7-[3-(Methylaminomethyl)indolin-1-yl]-N-tetrahydropyran-4-yl-thiazolo[5,4-d]pyrimidine-2-carboxamide] here?
Answer: Its IC50 is 31.6 nM.

Question: What about the IC50 [2] of the same compound?
Answer: The IC50 was 126 nM.

Question: What about the IC50 (Full-length human MNK1) of the same compound?
Answer: The IC50 was 50.1 nM.

Question: For O=C(NC1CCOCC1)c1nc2c(N3CC(CCN4CCOCC4)c4cc(F)ccc43)ncnc2s1 (stereo not drawn) [Example 151, 7-[5-fluoro-3-(2-morpholinoethyl)indolin-1-yl]-N-tetrahydropyran-4-yl-thiazolo[5,4-d]pyrimidine-2-carboxamide], which IC50 (Full-length human MNK2) is on record?
Answer: The IC50 was 100 nM.

Question: What about the IC50 [2] of the same compound?
Answer: Its IC50 is 31.6 nM.

Question: And the IC50 (Full-length human MNK1)?
Answer: The IC50 was 100 nM.

Question: For O=C(NC1CCOCC1)c1nc2c(N3CCc4ncccc43)ncnc2s1 [Example 44, 7-(2,3-Dihydro-1H-pyrrolo[3,2-b]pyridin-1-yl)-N-(tetrahydro-2H-pyran-4-yl)[1,3]thiazolo[5,4-d]pyrimidine-2-carboxamide], which IC50 (Full-length human MNK2) is on record?
Answer: Its IC50 is 100 nM.

Question: What about the IC50 [2] of the same compound?
Answer: Its IC50 is 100 nM.

Question: What about the IC50 (Full-length human MNK1) of the same compound?
Answer: The IC50 was 158 nM.

Question: Which IC50 (Full-length human MNK2) does the source give for O=C(NC1CCOCC1)c1nc2c(N3CCc4ccccc43)ncnc2s1 [Example 106, 7-Indolin-1-yl-N-tetrahydropyran-4-yl-thiazolo[5,4-d]pyrimidine-2-carboxamide] here?
Answer: Its IC50 is 7.94 nM.

Question: What about the IC50 [2] of the same compound?
Answer: Its IC50 is 20 nM.

Question: And the IC50 (Full-length human MNK1)?
Answer: Its IC50 is 12.6 nM.

Question: Which IC50 (Full-length human MNK2) does the source give for CC(C)Oc1cc(F)ccc1Nc1ncnc2sc(CO)nc12 [Example 48, [7-(4-Fluoro-2-isopropoxy-anilino)thiazolo[5,4-d]pyrimidin-2-yl]methanol] here?
Answer: Its IC50 is 39.8 nM.

Question: And the IC50 [2]?
Answer: The IC50 was 20 nM.

Question: What about the IC50 (Full-length human MNK1) of the same compound?
Answer: Its IC50 is 63.1 nM.

Question: For CC(C)Oc1cc(F)ccc1Nc1ncnc2sc(C(=O)NCC3CNCCO3)nc12 (stereo not drawn) [Example 4, 7-(4-fluoro-2-isopropoxy-anilino)-N-(morpholin-2-ylmethyl)thiazolo[5,4-d]pyrimidine-2-carboxamide], which IC50 (Full-length human MNK2) is on record?
Answer: Its IC50 is 39.8 nM.

Question: And the IC50 [2]?
Answer: Its IC50 is 100 nM.

Question: And the IC50 (Full-length human MNK1)?
Answer: The IC50 was 50.1 nM.

Question: With O=C(NCC1CCNCC1)c1nc2c(Nc3ccccc3-c3ccco3)ncnc2s1 [Example 62, 7-[2-(2-furyl)anilino]-N-(4-piperidylmethyl)thiazolo[5,4-d]pyrimidine-2-carboxamide] as the compound, how does the IC50 (Full-length human MNK2) read?
Answer: The IC50 was 316 nM.

Question: And the IC50 [2]?
Answer: Its IC50 is 316 nM.

Question: And the IC50 (Full-length human MNK1)?
Answer: The IC50 was 631 nM.

Question: With O=C(NC1CCOCC1)c1nc2c(N3CC(CCN4CCCC4)c4ccccc43)ncnc2s1 (stereo not drawn) [Example 153, 7-[3-(2-pyrrolidin-1-ylethyl)indolin-1-yl]-N-tetrahydropyran-4-yl-thiazolo[5,4-d]pyrimidine-2-carboxamide] as the compound, how does the IC50 (Full-length human MNK2) read?
Answer: The IC50 was 50.1 nM.

Question: And the IC50 [2]?
Answer: The IC50 was 100 nM.

Question: What about the IC50 (Full-length human MNK1) of the same compound?
Answer: The IC50 was 50.1 nM.

Question: Which results are given for CC(C)Oc1cc(F)ccc1Nc1ncnc2sc(C(=O)NCC3CCN(C)CC3)nc12 [Example 36, 7-{[4-fluoro-2-(propan-2-yloxy)phenyl]amino}-N-[(1-methylpiperidin-4-yl)methyl][1,3]thiazolo[5,4-d]pyrimidine-2-carboxamide]?
Answer: IC50 (Full-length human MNK2): 50.1 nM; IC50 [2]: 50.1 nM; IC50 (Full-length human MNK1): 50.1 nM

Question: Which IC50 (Full-length human MNK2) does the source give for C[C@@H]1Cc2ccccc2N1c1ncnc2sc(C(=O)NC3CCOCC3)nc12 [Example 130, 7-[(2R)-2-methylindolin-1-yl]-N-tetrahydropyran-4-yl-thiazolo[5,4-d]pyrimidine-2-carboxamide] here?
Answer: Its IC50 is 39.8 nM.

Question: And the IC50 [2]?
Answer: Its IC50 is 50.1 nM.

Question: And the IC50 (Full-length human MNK1)?
Answer: The IC50 was 50.1 nM.

Question: Which IC50 (Full-length human MNK2) does the source give for NCCC1CN(c2ncnc3sc(C(=O)NCCC(F)(F)F)nc23)c2ccccc21 (stereo not drawn) [Example 167, 7-[3-(2-aminoethyl)indolin-1-yl]-N-(3,3,3-trifluoropropyl)thiazolo [5,4-d]pyrimidine-2-carboxamide] here?
Answer: The IC50 was 5.01 nM.

Question: And the IC50 [2]?
Answer: The IC50 was 15.8 nM.

Question: What about the IC50 (Full-length human MNK1) of the same compound?
Answer: Its IC50 is 7.94 nM.

Question: Which IC50 (Full-length human MNK2) does the source give for CC(C)Oc1cc(F)ccc1Nc1ncnc2sc(C(=O)NCCCO)nc12 [Example 8, 7-(4-fluoro-2-isopropoxy-anilino)-N-(3-hydroxypropyl)thiazolo[5,4-d]pyrimidine-2-carboxamide] here?
Answer: Its IC50 is 50.1 nM.

Question: And the IC50 [2]?
Answer: Its IC50 is 63.1 nM.

Question: What about the IC50 (Full-length human MNK1) of the same compound?
Answer: The IC50 was 50.1 nM.

Question: What does the source list for CC1CN(c2ncnc3sc(C(=O)NC4CCN(C)CC4)nc23)c2ccccc21 (stereo not drawn) [Example 126, 7-(3-Methylindolin-1-yl)-N-(1-methyl-4-piperidyl)thiazolo[5,4-d]pyrimidine-2-carboxamide]?
Answer: IC50 (Full-length human MNK2): 6.31 nM; IC50 [2]: 3.98 nM; IC50 (Full-length human MNK1): 3.98 nM

Question: With O=C(NCC1CCNCC1)c1nc2c(Nc3ccc(F)cc3O[C@H]3CCOC3)ncnc2s1 [Example 54, 7-[4-fluoro-2-[(3S)-tetrahydrofuran-3-yl]oxy-anilino]-N-(4-piperidylmethyl)thiazolo[5,4-d]pyrimidine-2-carboxamide] as the compound, how does the IC50 (Full-length human MNK2) read?
Answer: The IC50 was 100 nM.

Question: And the IC50 [2]?
Answer: Its IC50 is 200 nM.

Question: What about the IC50 (Full-length human MNK1) of the same compound?
Answer: Its IC50 is 79.4 nM.

Question: Which IC50 (Full-length human MNK2) does the source give for O=C(NC1CCOCC1)c1nc2c(N3CCc4cc(F)ccc43)ncnc2s1 [Example 66, 7-(5-fluoroindolin-1-yl)-N-tetrahydropyran-4-yl-thiazolo[5,4-d]pyrimidine-2-carboxamide] here?
Answer: The IC50 was 3.98 nM.

Question: What about the IC50 [2] of the same compound?
Answer: The IC50 was 10 nM.

Question: What about the IC50 (Full-length human MNK1) of the same compound?
Answer: The IC50 was 5.01 nM.

Question: What does the source list for CC(=O)C1=C(O)C=C2Oc3c(C(N)=O)c(O)cc(O)c3[C@]2(C)C1=O [cercosporamide]?
Answer: outgrowth of lung metastases [3]: suppressing the outgrowth; tumor growth (HCT116 xenograft): reducing tumor growth; time to effective block of eIF4E phosphorylation [4]: ≤ 30 min
